Experimental data as given in publication PMC10214526, “Semisynthetic LC3 Probes for Autophagy Pathways Reveal a Noncanonical LC3 Interacting Region Motif Crucial for the Enzymatic Activity of Human ATG3” (ACS Central Science, 2023).

Tested on: ATG3 C1
Experiment: NaCl dependence of cross-linking of probe 2 with ATG3 C1
Format: biochemical, human
Details: probe 2 15 μM, ATG3 C1 15 μM, phosphate buffer, NaCl 0-500 mM, 37 °C, 30 min; n = 3
Experimental: Farnung et al. Supplementary Information […]
electrostatic representation of ATG3 LIR motif and GABARAP
Figure S13. Interaction of ATG3 and GABARAP is salt-dependent. a, ColabFold prediction of ATG3-GABARAP complex (in Fig. 1c) shown with its Coulombic potential. Only LIR motif of ATG3 shown for clarity.
LIRATG3 is mostly negatively charged and binds to a strongly positively charged surface on GABARAP. b, Binding of cyclized LIRATG3 peptide to GABARAP (0.2 μM) in the presence of varying amounts of NaCl. Binding was performed in triplicates and normalized to polarization for 0 mM NaCl. c, Modification of ATG3 C1 with 2 in the presence of increasing concentrations of NaCl (0 -500 mM). Coomassie Blue stained SDS-PAGE gel was analyzed by gel densitometry. d, Quantification of data shown in […]. […]
Figure S14. […] Lipidation was assessed by immunoblotting against LC3A/B. Lipidation was observed upon re-expression of ATG3 wt but not ATG3 C264A or ΔLIR. As a positive control wild-type HEK293T cells were starved and analyzed in parallel to ATG3 –/– cells. […]
SDS-PAGE (8-16%, Bio-Rad) and visualized by Coomassie staining. Gel bands were quantified by gel densitometry using ImageLab (Bio-Rad).
ATG3 C1 (15 μM) was mixed with GABARAP methyl fumarate 2 (15 μM) in PBS, and the reaction mixture was incubated at 37 °C for 30 min. […] Gel bands were quantified by gel densitometry using ImageLab […]

Substance: GABARAP(ΔG116)–NHNH methyl-fumarate [compound 2]
- Effect of increasing NaCl on cross-linking with ATG3 C1: reduced
